Test [1] is described as follows: antimicrobial activity in preserving liquid aqueous formulations (general observation). The conditions noted are these: at concentrations useful for pharmaceutical formulation purposes.
Test [2] has as its system Candida albicans, Aspergillus niger, Escherichia coli, Pseudomonas aeruginosa, Staphylococcus aureus. Briefly: Antimicrobial Effectiveness Testing USP <51>, overall conclusion. It counts as cell-based. The conditions noted are these: all inoculums. The method, then:
The testing was performed in accordance with the USP <51> using the culture conditions for inoculum specified in the test conditions. The Antimicrobial Effectiveness Testing (referred to later in the text as APE or antimicrobial effectiveness) is performed as described in USP 26, The United States Pharmacopeial Convention, Inc. (Rockville, Md., 2002; pp. 2002-2004). The test is conducted in five sterile, capped bacteriological containers into which a sufficient volume of product has been transferred. Test organisms include Candida albicans (ATCC No. 10231), Aspergillus niger (ATCC No. 16404), Escherichia coli (ATCC No. 8739), Pseudomonas aeruginosa (ATCC No. 9027), Staphylococcus aureus (ATCC No. 6538). Each container is inoculated with one of the prepared and standardized inoculum, and mix. […] The number of cfu present in each test preparation is determined by the plate-count procedure, specified in the monograph, for the applicable intervals. Using the calculated concentrations of cfu per mL present at the start of the test, the change in log10 values of the concentration of cfu per mL for each microorganism is calculated at the applicable test intervals, and the changes in terms of log reductions is expressed. Results are evaluated in accordance with the Product Category for Oral Products made with aqueous bases or vehicle.

On to `CC1(C)CC(C)(C)CC(C)(N)C1` [neramexane, 1-amino-1,3,3,5,5-pentamethylcyclohexane], for which, in test [1], the antimicrobial activity entry is recorded as “significant antimicrobial activity”. Moreover, the “antimicrobial / preservative effectiveness against USP <51> criteria (conclusion)” value in test [2] was “sufficient preservative efficacy”. Regarding `CC12CC3CC(C)(C1)CC(N)(C3)C2` [memantine, 1-amino-3,5-dimethyl adamantane], the antimicrobial activity result in test [1] was “significant antimicrobial activity”. Still for that read-out and setting: with `CN(C)CCOCC(=O)NC12CC3CC(CC(C3)C1)C2` [tromantadine, 1-(dimethylaminoethoxyacetamido) adamantane] the entry was “significant antimicrobial activity”.

(Values after patent publication US20140350114A1, “COMPOSITIONS COMPRISING CYCLOHEXYLAMINES AND AMINOADAMANTANES” (MERZ PHARMA GmbH & CO. KGaA, priority 2003, published 2014).)
